Laboratory results reported in PubChem BioAssay AID1845197 (Molecular Pharmacology Branch, DTP, NCI, 2023).

Tested on: 349418-098-R tumor spheroid viability
Assay: Anticancer human tumor 349418-098-R patient-derived lung adenocarcinoma cell line growth inhibition
Settings: spheroids with HUVEC and MSC; for IC50: curve of first compound; for viability, T/C: stronger effect = lower value; active = viability on the fitted dose curve at most 10% of control; inactive = the rest
Procedure, shortened: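 Single agents and combinations were tested on spheroids built from tumor cells plus HUVEC and hMSC, at half-log dilutions starting at or near clinical Cmax, else 10 microM; final DMSO 0.25% (v/v).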

[1] = second compound 0.003 µM, first compound 0.00949 µM
[2] = second compound 0.003 µM, first compound 0.03 µM
[3] = second compound 0.003 µM, first compound 0.0949 µM
[4] = second compound 0.003 µM, first compound 0.3 µM
[5] = second compound 0.003 µM, first compound 0.949 µM
[6] = second compound 0.003 µM, first compound 3 µM
[7] = second compound 0.00949 µM, first compound 0.00949 µM
[8] = second compound 0.00949 µM, first compound 0.03 µM
[9] = second compound 0.00949 µM, first compound 0.0949 µM
[10] = second compound 0.00949 µM, first compound 0.3 µM
[11] = second compound 0.00949 µM, first compound 0.949 µM
[12] = second compound 0.00949 µM, first compound 3 µM
[13] = second compound 0.03 µM, first compound 0.00949 µM
[14] = second compound 0.03 µM, first compound 0.03 µM
[15] = second compound 0.03 µM, first compound 0.0949 µM
[16] = second compound 0.03 µM, first compound 0.3 µM
[17] = second compound 0.03 µM, first compound 0.949 µM
[18] = second compound 0.03 µM, first compound 3 µM
[19] = second compound 0.0949 µM, first compound 0.00949 µM
[20] = second compound 0.0949 µM, first compound 0.03 µM
[21] = second compound 0.0949 µM, first compound 0.0949 µM
[22] = second compound 0.0949 µM, first compound 0.3 µM
[23] = second compound 0.0949 µM, first compound 0.949 µM
[24] = second compound 0.0949 µM, first compound 3 µM
[25] = second compound 0.3 µM, first compound 0.00949 µM
[26] = second compound 0.3 µM, first compound 0.03 µM
[27] = second compound 0.3 µM, first compound 0.0949 µM
[28] = second compound 0.3 µM, first compound 0.3 µM
[29] = second compound 0.3 µM, first compound 0.949 µM
[30] = second compound 0.3 µM, first compound 3 µM
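Also: spheroids exposed to compound for 7 days before measurement.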
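For viability, T/C in this document: percent of vehicle control viability with 100% = DMSO-treated spheroids.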

CNCc1ccc(-c2cc(-c3nc(-c4ccc(S(=O)(=O)C(C)C)cc4)cnc3N)on2)cc1 + CC[C@@]1(O)C(=O)OCc2c1cc1n(c2=O)Cc2cc3c(CN(C)C)c(O)ccc3nc2-1
inactive: viability, T/C [1] 106% | viability, T/C [2] 96.8% | viability, T/C [3] 95% | viability, T/C [4] 26.4% | viability, T/C [7] 103% | viability, T/C [8] 96.3% | viability, T/C [9] 78.2% | viability, T/C [10] 15.9% | viability, T/C [13] 89.1% | viability, T/C [14] 83.9% | viability, T/C [15] 74.5% | viability, T/C [16] 10.1% | viability, T/C [19] 25.5% | viability, T/C [20] 22% | viability, T/C [21] 12.8%
147 nM: IC50 (second compound 0.03 µM)
160 nM: IC50 (second compound 0.00949 µM)
< 9.49 nM: IC50 (second compound 0.0949 µM) | IC50 (second compound 0.3 µM)
active: viability, T/C [5] 6.42% | viability, T/C [6] 1.25% | viability, T/C [11] 6.27% | viability, T/C [12] 0.63% | viability, T/C [17] 3.96% | viability, T/C [18] 0.78% | viability, T/C [22] 4.56% | viability, T/C [23] 3.43% | viability, T/C [24] 0.31% | viability, T/C [25] 3.32% | viability, T/C [26] 4.32% | viability, T/C [27] 3.68% | viability, T/C [28] 3.02% | viability, T/C [29] 2.18% | viability, T/C [30] 0.36%
202 nM: IC50 (second compound 0.003 µM)

Cn1ncnc1[C@H]1c2n[nH]c(=O)c3cc(F)cc(c23)N[C@@H]1c1ccc(F)cc1 + CC[C@@]1(O)C(=O)OCc2c1cc1n(c2=O)Cc2cc3c(CN(C)C)c(O)ccc3nc2-1
1100 nM: IC50 (second compound 0.00949 µM)
53.9 nM: IC50 (second compound 0.03 µM)
1620 nM: IC50 (second compound 0.003 µM)
active: viability, T/C [12] 7.96% | viability, T/C [18] 2.95% | viability, T/C [21] 12.7% | viability, T/C [22] 8.01% | viability, T/C [23] 5.35% | viability, T/C [24] 1.86% | viability, T/C [25] 3.53% | viability, T/C [26] 3.12% | viability, T/C [27] 3.64% | viability, T/C [28] 3.26% | viability, T/C [29] 2.39% | viability, T/C [30] 1.17%
< 9.49 nM: IC50 (second compound 0.0949 µM) | IC50 (second compound 0.3 µM)
inactive: viability, T/C [1] 93.6% | viability, T/C [2] 97.7% | viability, T/C [3] 91.4% | viability, T/C [4] 96.6% | viability, T/C [5] 83.3% | viability, T/C [6] 11.1% | viability, T/C [7] 100% | viability, T/C [8] 97.6% | viability, T/C [9] 90.8% | viability, T/C [10] 92.6% | viability, T/C [11] 56.1% | viability, T/C [13] 63.4% | viability, T/C [14] 59.5% | viability, T/C [15] 41.3% | viability, T/C [16] 31.1% | viability, T/C [17] 18.3% | viability, T/C [19] 13.1% | viability, T/C [20] 9.39%

Cc1cc(C)c(CNC(=O)c2cc(-c3ccc(CN4CCOCC4)cc3)cc3c2cnn3C2CCCC2)c(=O)[nH]1 + COc1cc2c(cc1O)CCNC21CSC2c3c(OC(C)=O)c(C)c4c(c3C(COC1=O)N1C(O)C3Cc5cc(C)c(OC)c(O)c5C(C21)N3C)OCO4
< 31.6 nM: IC50 (second compound 0.000949 µM) | IC50 (second compound 0.003 µM)
inactive: viability, T/C (second compound 30 pM, first compound 0.0316 µM) 103% | viability, T/C (second compound 30 pM, first compound 0.1 µM) 97.3% | viability, T/C (second compound 30 pM, first compound 0.316 µM) 105% | viability, T/C (second compound 30 pM, first compound 1 µM) 119% | viability, T/C (second compound 30 pM, first compound 3.16 µM) 114% | viability, T/C (second compound 30 pM, first compound 10 µM) 104% | viability, T/C (second compound 94.9 pM, first compound 0.0316 µM) 104% | viability, T/C (second compound 94.9 pM, first compound 0.1 µM) 97.9% | viability, T/C (second compound 94.9 pM, first compound 0.316 µM) 102% | viability, T/C (second compound 94.9 pM, first compound 1 µM) 118% | viability, T/C (second compound 94.9 pM, first compound 3.16 µM) 115% | viability, T/C (second compound 94.9 pM, first compound 10 µM) 77.7% | viability, T/C (second compound 0.0003 µM, first compound 0.0316 µM) 98.4% | viability, T/C (second compound 0.0003 µM, first compound 0.1 µM) 90.4% | viability, T/C (second compound 0.0003 µM, first compound 0.316 µM) 98.1% | viability, T/C (second compound 0.0003 µM, first compound 1 µM) 100% | viability, T/C (second compound 0.0003 µM, first compound 3.16 µM) 98.6% | viability, T/C (second compound 0.0003 µM, first compound 10 µM) 72.6%
active: viability, T/C (second compound 0.000949 µM, first compound 0.0316 µM) 0.39% | viability, T/C (second compound 0.000949 µM, first compound 0.1 µM) 0.81% | viability, T/C (second compound 0.000949 µM, first compound 0.316 µM) 0.5% | viability, T/C (second compound 0.000949 µM, first compound 1 µM) 0.48% | viability, T/C (second compound 0.000949 µM, first compound 3.16 µM) 0.45% | viability, T/C (second compound 0.000949 µM, first compound 10 µM) 0.53% | viability, T/C (second compound 0.003 µM, first compound 0.0316 µM) 1.51% | viability, T/C (second compound 0.003 µM, first compound 0.1 µM) 1.6% | viability, T/C (second compound 0.003 µM, first compound 0.316 µM) 1.61% | viability, T/C (second compound 0.003 µM, first compound 1 µM) 1.74% | viability, T/C (second compound 0.003 µM, first compound 3.16 µM) 2.05% | viability, T/C (second compound 0.003 µM, first compound 10 µM) 0.75%
> 10000 nM: IC50 (second compound 30 pM) | IC50 (second compound 94.9 pM) | IC50 (second compound 0.0003 µM)
